The record followed here is US8481297B2 (priority 2009, dated 2013).

This experiment concerns U-373MG cells. Format: cell-based, human.

Where two headings read alike, the source gives them in different places.

Turning to `CN[C@@H]1C[C@H]2O[C@@](C)([C@@H]1OC)n1c3ccccc3c3c4c(c5c6ccccc6n2c5c31)C(=O)NC4` [Staurosporine, staurosporine], the “effect on the difference in plaque size between VSV-rp30 and VSV-G/GFP” value (“effect on the difference” below) is on record as “significant attenuation of the difference in plaque size”.

Regarding `O=c1c(-c2ccc(O)cc2)coc2cc(O)cc(O)c12` [Genistein, genistein], the “effect on the difference” value (10 μM, 24 hrs) is “significantly attenuated the difference in plaque size”.

Take tyrphostin 51: the “effect on the difference” value is reported as “no significant effect on the difference in plaque size”.
